The values that follow come from ChEMBL document CHEMBL1629537, “Non-natural macrocyclic inhibitors of histone deacetylases: design, synthesis, and activity” (J Med Chem, 2010).

One experiment has as its target Histone deacetylase 9 (Homo sapiens, UniProt Q9UKV0). The experiment is described as follows: Inhibition of human HDAC9 by fluorimetric assay.
A further experiment concerns the target Histone deacetylase 1 (Homo sapiens, UniProt Q13547). The experiment is described as follows: Inhibition of human HDAC1 by fluorimetric assay.
A further experiment addresses Histone deacetylase 3 (Homo sapiens, UniProt O15379).
The target in another experiment is Histone deacetylase 4 (Homo sapiens, UniProt P56524). The experiment is described as follows: Inhibition of human HDAC4 by fluorimetric assay.
A further experiment has as its target Histone deacetylase 2 (Homo sapiens, UniProt Q92769).
Experiment [1] has as its target T1, Protein deacetylase HDAC6 (Homo sapiens, UniProt Q9UBN7).
T1 sequence (Q9UBN7 whole entry): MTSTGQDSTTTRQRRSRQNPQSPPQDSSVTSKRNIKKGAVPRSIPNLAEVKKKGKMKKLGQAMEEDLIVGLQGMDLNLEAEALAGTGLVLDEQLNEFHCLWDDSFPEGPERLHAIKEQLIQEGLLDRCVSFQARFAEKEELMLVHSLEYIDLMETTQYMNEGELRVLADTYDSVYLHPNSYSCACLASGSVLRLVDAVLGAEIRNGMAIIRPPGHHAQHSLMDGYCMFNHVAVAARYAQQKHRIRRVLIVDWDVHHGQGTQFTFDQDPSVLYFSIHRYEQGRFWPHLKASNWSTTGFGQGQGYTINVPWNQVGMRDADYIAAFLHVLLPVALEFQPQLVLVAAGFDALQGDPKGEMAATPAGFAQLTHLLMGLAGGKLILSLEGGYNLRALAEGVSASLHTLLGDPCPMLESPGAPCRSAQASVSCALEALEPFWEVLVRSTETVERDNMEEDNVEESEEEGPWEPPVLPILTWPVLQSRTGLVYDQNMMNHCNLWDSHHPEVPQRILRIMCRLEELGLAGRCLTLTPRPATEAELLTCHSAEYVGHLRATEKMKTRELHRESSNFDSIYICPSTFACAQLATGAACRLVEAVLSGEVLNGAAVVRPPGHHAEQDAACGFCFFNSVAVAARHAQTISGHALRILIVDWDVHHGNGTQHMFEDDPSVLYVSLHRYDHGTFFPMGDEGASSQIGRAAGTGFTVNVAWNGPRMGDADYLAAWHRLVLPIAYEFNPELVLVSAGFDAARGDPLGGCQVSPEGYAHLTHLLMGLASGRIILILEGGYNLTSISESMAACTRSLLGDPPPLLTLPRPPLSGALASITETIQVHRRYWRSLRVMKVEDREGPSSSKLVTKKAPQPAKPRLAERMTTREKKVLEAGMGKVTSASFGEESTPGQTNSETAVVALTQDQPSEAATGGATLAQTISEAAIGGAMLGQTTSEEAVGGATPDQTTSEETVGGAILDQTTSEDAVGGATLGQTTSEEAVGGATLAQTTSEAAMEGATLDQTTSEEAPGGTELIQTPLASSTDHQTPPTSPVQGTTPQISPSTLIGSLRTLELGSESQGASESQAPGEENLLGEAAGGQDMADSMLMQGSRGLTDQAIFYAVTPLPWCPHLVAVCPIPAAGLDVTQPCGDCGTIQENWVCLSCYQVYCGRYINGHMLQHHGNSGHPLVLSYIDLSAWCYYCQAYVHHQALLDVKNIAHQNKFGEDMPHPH
The experiment is described as follows: Inhibition of human HDAC6 by fluorimetric assay.

A further experiment deals with T2, Histone deacetylase 8 (Homo sapiens, UniProt Q9BY41).
T2 sequence (Q9BY41 whole entry): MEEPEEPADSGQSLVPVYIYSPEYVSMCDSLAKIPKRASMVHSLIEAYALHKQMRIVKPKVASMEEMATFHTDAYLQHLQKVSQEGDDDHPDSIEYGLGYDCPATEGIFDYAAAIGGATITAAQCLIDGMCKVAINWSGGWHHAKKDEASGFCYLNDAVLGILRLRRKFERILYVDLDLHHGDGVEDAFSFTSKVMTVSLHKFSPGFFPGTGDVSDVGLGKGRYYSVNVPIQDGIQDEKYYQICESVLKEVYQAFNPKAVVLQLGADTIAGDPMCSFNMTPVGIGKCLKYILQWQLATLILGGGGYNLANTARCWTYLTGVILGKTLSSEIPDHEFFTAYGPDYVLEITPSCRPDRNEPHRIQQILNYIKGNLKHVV
The experiment is described as follows: Inhibition of human HDAC8 by fluorimetric assay.

The target in the next experiment is T3, Histone deacetylase 11 (Homo sapiens, UniProt Q96DB2).
T3 sequence (Q96DB2 whole entry): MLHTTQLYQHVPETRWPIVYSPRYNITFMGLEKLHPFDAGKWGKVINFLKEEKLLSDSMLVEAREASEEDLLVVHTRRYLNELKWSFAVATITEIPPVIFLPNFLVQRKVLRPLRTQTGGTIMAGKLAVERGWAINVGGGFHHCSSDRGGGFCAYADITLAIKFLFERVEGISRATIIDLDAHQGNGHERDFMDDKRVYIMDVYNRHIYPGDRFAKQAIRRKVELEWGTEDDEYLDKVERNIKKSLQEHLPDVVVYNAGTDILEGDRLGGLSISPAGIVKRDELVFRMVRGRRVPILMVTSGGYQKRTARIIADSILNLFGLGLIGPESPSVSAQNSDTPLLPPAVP
The experiment is described as follows: Inhibition of human HDAC11 by fluorimetric assay.

The next experiment relates to HCT-116. The experiment is described as follows: cells. The experiment is classed as functional, cell-based. To be noted: Homo sapiens, HCT-116, 48 h.
For a further experiment, the target named is Histone deacetylase 5 (Homo sapiens, UniProt Q9UQL6). The experiment is described as follows: Inhibition of human HDAC5 by fluorimetric assay.

The structures appear in SMILES notation.

Sequence of Histone deacetylase 5 (Q9UQL6 whole entry): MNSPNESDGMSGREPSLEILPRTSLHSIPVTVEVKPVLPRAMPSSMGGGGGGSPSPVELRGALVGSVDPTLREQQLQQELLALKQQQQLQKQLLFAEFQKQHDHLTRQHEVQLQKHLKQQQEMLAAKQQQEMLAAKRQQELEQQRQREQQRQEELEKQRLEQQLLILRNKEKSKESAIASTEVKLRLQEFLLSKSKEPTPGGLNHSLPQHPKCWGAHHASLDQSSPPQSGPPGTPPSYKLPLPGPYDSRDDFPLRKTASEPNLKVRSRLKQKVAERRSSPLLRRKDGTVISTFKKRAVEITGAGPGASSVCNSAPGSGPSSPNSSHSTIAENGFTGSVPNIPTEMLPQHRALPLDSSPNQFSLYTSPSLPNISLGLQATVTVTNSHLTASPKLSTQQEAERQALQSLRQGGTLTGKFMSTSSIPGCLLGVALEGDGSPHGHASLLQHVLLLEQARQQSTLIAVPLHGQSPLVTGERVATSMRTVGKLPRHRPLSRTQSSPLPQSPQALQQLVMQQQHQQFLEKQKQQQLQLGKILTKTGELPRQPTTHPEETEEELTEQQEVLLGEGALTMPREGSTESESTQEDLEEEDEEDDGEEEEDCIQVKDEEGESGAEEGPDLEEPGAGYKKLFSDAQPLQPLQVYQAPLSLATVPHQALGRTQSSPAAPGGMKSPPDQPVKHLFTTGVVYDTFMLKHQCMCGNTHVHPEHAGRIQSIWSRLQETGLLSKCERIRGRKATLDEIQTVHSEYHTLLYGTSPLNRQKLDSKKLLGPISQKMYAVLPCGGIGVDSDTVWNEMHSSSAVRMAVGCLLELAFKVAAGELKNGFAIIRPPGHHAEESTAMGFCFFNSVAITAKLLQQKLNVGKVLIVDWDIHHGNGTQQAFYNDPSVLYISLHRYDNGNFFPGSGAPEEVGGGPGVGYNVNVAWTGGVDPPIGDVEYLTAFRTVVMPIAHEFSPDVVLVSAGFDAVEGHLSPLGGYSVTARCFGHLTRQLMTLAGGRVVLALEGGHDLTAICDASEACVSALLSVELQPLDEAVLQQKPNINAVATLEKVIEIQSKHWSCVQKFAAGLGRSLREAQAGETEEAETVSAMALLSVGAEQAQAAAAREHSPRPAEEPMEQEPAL
Sequence of Histone deacetylase 4 (P56524 whole entry): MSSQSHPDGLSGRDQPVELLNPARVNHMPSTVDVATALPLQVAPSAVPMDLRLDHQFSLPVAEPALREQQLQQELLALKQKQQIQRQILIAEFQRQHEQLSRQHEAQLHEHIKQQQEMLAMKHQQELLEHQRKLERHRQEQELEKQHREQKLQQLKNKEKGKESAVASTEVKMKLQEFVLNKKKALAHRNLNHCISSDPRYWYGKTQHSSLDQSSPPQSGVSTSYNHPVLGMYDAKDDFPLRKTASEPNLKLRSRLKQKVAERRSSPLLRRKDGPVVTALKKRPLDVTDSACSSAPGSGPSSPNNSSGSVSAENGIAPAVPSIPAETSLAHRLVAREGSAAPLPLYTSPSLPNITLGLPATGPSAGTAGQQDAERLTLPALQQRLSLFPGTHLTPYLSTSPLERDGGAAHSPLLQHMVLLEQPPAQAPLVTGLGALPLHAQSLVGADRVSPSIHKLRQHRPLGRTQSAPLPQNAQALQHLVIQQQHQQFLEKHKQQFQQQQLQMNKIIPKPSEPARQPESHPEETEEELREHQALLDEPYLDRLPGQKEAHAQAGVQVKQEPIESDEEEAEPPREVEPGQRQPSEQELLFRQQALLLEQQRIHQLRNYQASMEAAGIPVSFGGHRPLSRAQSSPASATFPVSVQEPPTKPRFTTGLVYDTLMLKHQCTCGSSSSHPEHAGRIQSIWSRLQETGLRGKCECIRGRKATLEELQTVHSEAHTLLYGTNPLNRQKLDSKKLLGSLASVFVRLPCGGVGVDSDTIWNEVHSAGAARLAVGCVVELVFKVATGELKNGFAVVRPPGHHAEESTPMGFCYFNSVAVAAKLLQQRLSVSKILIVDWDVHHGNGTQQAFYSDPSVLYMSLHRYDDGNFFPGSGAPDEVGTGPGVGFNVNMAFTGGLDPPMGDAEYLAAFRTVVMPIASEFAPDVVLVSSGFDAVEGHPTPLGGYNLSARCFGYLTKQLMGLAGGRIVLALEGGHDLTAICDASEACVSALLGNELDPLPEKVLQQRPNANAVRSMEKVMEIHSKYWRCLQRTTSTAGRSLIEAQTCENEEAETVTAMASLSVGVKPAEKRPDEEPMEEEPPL
Sequence of Histone deacetylase 2 (Q92769 whole entry): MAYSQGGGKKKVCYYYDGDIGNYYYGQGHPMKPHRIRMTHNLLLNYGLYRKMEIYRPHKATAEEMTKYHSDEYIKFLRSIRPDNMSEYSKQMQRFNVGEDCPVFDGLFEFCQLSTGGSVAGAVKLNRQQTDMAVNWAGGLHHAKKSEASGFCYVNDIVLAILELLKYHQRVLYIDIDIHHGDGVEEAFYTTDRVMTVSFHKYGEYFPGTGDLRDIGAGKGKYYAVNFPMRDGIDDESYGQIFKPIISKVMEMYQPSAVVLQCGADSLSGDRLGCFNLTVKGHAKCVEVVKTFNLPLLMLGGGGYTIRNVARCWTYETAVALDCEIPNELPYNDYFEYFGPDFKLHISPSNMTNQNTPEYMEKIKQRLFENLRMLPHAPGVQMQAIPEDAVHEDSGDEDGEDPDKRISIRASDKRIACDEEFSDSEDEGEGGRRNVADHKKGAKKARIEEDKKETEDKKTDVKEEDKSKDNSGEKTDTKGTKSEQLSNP
Sequence of Histone deacetylase 9 (Q9UKV0 whole entry): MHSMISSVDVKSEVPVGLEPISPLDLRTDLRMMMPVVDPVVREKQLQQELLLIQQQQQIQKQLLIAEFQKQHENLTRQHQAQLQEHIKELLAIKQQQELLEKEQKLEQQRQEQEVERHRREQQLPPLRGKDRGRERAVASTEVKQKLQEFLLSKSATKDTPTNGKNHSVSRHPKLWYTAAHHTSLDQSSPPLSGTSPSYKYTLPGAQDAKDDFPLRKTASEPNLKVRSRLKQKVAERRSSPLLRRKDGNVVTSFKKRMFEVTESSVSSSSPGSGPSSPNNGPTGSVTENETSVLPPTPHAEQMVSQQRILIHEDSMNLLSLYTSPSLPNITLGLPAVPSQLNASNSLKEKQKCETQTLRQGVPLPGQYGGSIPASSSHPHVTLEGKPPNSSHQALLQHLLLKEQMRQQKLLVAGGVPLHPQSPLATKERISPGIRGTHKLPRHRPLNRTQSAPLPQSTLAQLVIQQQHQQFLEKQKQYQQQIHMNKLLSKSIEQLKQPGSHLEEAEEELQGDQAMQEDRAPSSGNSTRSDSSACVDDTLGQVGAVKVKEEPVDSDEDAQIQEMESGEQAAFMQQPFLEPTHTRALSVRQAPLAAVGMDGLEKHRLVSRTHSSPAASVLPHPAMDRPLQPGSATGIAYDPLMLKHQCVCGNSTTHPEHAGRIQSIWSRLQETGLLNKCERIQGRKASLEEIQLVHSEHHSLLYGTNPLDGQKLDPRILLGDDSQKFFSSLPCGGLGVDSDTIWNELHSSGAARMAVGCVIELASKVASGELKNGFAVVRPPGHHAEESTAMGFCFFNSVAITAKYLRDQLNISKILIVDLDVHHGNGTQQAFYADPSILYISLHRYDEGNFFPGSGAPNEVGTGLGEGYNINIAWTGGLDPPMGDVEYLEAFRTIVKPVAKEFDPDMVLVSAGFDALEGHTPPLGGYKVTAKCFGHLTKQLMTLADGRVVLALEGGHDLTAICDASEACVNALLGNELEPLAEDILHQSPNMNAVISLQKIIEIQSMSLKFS
Sequence of Histone deacetylase 3 (O15379 whole entry): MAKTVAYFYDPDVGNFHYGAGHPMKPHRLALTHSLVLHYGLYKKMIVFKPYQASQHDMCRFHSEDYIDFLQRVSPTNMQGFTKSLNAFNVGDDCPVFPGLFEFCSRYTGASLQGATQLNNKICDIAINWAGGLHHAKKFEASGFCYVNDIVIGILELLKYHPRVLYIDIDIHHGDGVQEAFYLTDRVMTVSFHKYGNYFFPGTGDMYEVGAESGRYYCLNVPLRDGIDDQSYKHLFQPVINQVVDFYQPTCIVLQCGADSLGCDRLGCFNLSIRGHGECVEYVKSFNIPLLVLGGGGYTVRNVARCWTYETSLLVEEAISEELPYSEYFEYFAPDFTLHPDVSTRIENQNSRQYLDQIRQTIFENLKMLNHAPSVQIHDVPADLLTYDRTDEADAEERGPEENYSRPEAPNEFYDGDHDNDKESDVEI
Sequence of Histone deacetylase 1 (Q13547 whole entry): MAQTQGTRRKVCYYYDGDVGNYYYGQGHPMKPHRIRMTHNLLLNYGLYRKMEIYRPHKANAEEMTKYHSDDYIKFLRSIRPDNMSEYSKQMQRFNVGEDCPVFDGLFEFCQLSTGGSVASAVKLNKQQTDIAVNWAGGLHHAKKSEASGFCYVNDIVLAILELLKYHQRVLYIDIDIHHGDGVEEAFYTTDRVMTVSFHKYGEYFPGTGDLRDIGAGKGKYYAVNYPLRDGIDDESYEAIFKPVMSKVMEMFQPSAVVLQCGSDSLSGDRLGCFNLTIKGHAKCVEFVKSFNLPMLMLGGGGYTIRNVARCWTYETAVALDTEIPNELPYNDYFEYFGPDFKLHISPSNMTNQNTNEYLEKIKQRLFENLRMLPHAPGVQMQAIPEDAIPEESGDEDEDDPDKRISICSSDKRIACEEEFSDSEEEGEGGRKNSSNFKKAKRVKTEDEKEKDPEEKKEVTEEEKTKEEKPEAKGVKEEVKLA

Regarding `COc1cc2cc(c1)COc1ccccc1NC(=O)[C@H](CCCCCC(=O)NO)OC/C=C\2`, the 50% inhibitory concentration (IC50) – broadly, the concentration that gives 50% inhibition – is 60.6 nM against Histone deacetylase 9; 31.7 nM against Histone deacetylase 1; 55.7 nM on Histone deacetylase 3; 79.4 nM on Histone deacetylase 4; 158 nM against Histone deacetylase 2; 0.84 nM in experiment [1]. The half-maximal inhibitory concentration (IC50) at Histone deacetylase 8 is 198 nM; against Histone deacetylase 11 it was 22.9 nM; in the experiment on HCT-116 it was 690 nM; against Histone deacetylase 5, 62.2 nM.

Consider `COc1cc2cc(c1)COc1ccccc1NC(=O)[C@@H](CCCCCC(=O)NO)OC/C=C\2`, for which the IC50 against Histone deacetylase 9 was determined as 302 nM; against Histone deacetylase 1, 78.1 nM; on Histone deacetylase 3, 89 nM; against Histone deacetylase 4, 284 nM; on Histone deacetylase 2, 382 nM; in [1], 10.2 nM. Moreover, the IC50 on Histone deacetylase 8 stood at 206 nM; at Histone deacetylase 11, 97.1 nM; in the experiment with HCT-116, 640 nM; against Histone deacetylase 5 it was 155 nM.

Regarding `O=C(CCCCCC1OCCCCCOc2ccccc2NC1=O)NO` (racemic), the 50% inhibitory concentration (IC50) against Histone deacetylase 9 was 1900 nM; against Histone deacetylase 1 it was 949 nM; against Histone deacetylase 3, 369 nM; at Histone deacetylase 4, 2580 nM; at Histone deacetylase 2 it was 1930 nM; in [1], 15.6 nM. For the same compound, the half-inhibitory concentration (IC50) came out at 643 nM on Histone deacetylase 8, 1210 nM at Histone deacetylase 11, 690 nM in the experiment on HCT-116 and 1340 nM at Histone deacetylase 5.

Turning to `COc1cc2cc(c1)COc1ccccc1NC(=O)C(CCCCCC(=O)NO)OC/C=C\2` (racemic), the 50% inhibitory concentration (IC50) was 99.6 nM at Histone deacetylase 9; 30.7 nM on Histone deacetylase 1; 39.6 nM against Histone deacetylase 3; 159 nM against Histone deacetylase 4; 207 nM against Histone deacetylase 2; 1.97 nM in experiment [1]. Also, the 50% inhibitory concentration (IC50) was 119 nM against Histone deacetylase 8, 57.7 nM against Histone deacetylase 11, 450 nM in the experiment with HCT-116 and 55.4 nM against Histone deacetylase 5.
